Each structure is given as a SMILES string.

One series can be described thus: accelerated −30° F. storage test (crystal formation). It is filed as physicochemical. To be noted: 1.5% by volume in the Example composition. How it is done:
Additional morpholine derivatives were also tested in lieu of the morpholine in the above table, at the same amount (1.5% by volume) and by the accelerated −30° F. storage test. These derivatives were N-methylmorpholine, N-ethylmorpholine, N-methylmorpholine oxide, and N-aminopropylmorpholine.
On to `NCCCN1CCOCC1` [N-aminopropylmorpholine], for which the “result of accelerated storage test with derivative in lieu of morpholine” value was “satisfactory results”.

With `CCN1CCOCC1` [N-ethylmorpholine], the “result of accelerated storage test with derivative in lieu of morpholine” value is recorded as “satisfactory results”. Still for that read-out and setting: to `C[N+]1([O-])CCOCC1` [N-methylmorpholine oxide] belongs “satisfactory results”. On the same count and under the same terms, to `CN1CCOCC1` [N-methylmorpholine] belongs “satisfactory results”.

A short description of another series: substitute ingredients in lieu of morpholine in THP/THPS-amino phosophono chelant compositions (crystal deposition). To be noted: ingredients employed alone and in various combinations in THP/THPS-amino phosophono chelant compositions. Format: physicochemical. From the text: During the course of development of the present invention, a number of different ingredients were used in lieu of morpholine in THP/THPS-amino phosophono chelant compositions. None of these substitute materials were successful.
On to `N` [ammonium hydroxide], for which the “crystal deposition of product with ingredient used in lieu of morpholine” value is on record as “prone to crystal deposition”. In the case of `CC(C)O` [isopropyl alcohol], the “crystal deposition of product with ingredient used in lieu of morpholine” value is “prone to crystal deposition”. Same read-out and setting: next, `CO` [methyl alcohol]: “prone to crystal deposition”; `[Na+].[OH-]` [sodium hydroxide]: “prone to crystal deposition”.

The values are drawn from patent US20100137170A1, “DUAL USE WELL TREATMENT COMPOSITION” (JACAM CHEMICALS, LLC, priority 2008, published 2010).
